Measurements as given in ChEMBL document CHEMBL5291721, “A preclinical secondary pharmacology resource illuminates target-adverse drug reaction associations of marketed drugs” (Nat Commun, 2023).

Columns and labels:
[1] = biological target: Gamma-aminobutyric acid receptor subunit alpha-1 (Rattus norvegicus, UniProt P62813); assay type: functional
[2] = biological target: T1, Prostaglandin G/H synthase 1 (Rattus norvegicus, UniProt Q63921); assay type: functional
T1 sequence (Q63921 whole entry): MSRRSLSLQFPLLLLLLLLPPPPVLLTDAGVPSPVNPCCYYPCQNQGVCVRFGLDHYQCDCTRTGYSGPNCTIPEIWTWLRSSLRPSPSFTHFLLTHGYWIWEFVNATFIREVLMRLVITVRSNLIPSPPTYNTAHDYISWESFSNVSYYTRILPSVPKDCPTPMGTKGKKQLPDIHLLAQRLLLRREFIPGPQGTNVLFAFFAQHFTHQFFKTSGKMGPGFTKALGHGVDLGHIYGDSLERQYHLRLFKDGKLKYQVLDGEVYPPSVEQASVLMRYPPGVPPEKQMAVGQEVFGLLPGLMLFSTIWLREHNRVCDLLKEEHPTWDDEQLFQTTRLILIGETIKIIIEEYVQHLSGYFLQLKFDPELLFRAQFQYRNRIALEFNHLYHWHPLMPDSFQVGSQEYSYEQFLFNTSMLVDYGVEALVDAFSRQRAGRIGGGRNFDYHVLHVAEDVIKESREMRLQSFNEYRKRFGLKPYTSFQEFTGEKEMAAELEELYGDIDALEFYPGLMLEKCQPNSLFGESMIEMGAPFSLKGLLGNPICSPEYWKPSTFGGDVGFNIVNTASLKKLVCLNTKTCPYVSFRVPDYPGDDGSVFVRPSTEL

[3] = biological target: T2, Adenosine receptor A3 (Homo sapiens, UniProt P0DMS8)
T2 sequence (P0DMS8 whole entry): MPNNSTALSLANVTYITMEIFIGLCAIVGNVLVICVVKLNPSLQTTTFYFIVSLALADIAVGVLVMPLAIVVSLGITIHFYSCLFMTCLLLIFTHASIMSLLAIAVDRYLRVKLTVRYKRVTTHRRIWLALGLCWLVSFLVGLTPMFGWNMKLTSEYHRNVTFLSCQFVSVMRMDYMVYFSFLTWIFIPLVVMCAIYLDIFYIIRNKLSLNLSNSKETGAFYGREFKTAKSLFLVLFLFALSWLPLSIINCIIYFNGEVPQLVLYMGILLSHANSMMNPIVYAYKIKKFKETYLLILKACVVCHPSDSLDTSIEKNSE

[4] = biological target: Sodium-dependent noradrenaline transporter (Homo sapiens, UniProt P23975)
[5] = biological target: T3, Muscarinic acetylcholine receptor M2 (Homo sapiens, UniProt P08172); assay type: functional, cell-based
T3 sequence (P08172 whole entry): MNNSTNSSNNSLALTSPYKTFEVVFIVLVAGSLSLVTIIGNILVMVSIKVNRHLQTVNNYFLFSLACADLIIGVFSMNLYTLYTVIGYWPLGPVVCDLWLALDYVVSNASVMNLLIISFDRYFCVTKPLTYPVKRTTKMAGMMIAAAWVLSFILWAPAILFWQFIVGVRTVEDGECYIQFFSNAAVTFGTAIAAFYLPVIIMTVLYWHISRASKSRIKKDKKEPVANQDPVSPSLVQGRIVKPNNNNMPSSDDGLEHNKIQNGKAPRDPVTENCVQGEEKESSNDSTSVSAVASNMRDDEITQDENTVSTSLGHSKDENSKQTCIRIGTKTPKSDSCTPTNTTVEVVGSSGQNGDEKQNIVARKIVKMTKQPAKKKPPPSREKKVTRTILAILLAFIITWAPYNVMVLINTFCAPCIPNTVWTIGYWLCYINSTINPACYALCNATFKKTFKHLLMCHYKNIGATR

[6] = biological target: 5-hydroxytryptamine receptor 2B (Homo sapiens, UniProt P41595); assay type: functional, cell-based
[7] = biological target: Delta-type opioid receptor (Homo sapiens, UniProt P41143)
[8] = biological target: Bile salt export pump (Homo sapiens, UniProt O95342); assay type: functional
[9] = biological target: Melanocortin receptor 3 (Homo sapiens, UniProt P41968)
[10] = biological target: Sodium-dependent dopamine transporter (Homo sapiens, UniProt Q01959)
[11] = biological target: D(1A) dopamine receptor (Homo sapiens, UniProt P21728); assay type: functional, cell-based
[12] = biological target: T4, Alpha-2A adrenergic receptor (Homo sapiens, UniProt P08913); assay type: functional, cell-based
T4 sequence (P08913 whole entry): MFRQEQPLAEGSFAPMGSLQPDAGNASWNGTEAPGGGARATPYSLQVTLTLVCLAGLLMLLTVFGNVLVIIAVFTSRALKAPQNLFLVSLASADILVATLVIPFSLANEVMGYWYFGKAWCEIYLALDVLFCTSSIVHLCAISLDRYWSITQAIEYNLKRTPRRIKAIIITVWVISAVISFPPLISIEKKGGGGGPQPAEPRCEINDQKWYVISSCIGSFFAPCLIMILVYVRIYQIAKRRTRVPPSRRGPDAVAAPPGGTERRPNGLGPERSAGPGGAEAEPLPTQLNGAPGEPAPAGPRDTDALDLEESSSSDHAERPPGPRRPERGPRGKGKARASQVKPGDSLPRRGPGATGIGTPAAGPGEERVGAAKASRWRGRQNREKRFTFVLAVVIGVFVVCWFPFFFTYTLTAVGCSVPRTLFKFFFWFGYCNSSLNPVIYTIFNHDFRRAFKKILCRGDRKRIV

[13] = biological target: T5, 5-hydroxytryptamine receptor 2C (Homo sapiens, UniProt P28335)
T5 sequence (P28335 whole entry): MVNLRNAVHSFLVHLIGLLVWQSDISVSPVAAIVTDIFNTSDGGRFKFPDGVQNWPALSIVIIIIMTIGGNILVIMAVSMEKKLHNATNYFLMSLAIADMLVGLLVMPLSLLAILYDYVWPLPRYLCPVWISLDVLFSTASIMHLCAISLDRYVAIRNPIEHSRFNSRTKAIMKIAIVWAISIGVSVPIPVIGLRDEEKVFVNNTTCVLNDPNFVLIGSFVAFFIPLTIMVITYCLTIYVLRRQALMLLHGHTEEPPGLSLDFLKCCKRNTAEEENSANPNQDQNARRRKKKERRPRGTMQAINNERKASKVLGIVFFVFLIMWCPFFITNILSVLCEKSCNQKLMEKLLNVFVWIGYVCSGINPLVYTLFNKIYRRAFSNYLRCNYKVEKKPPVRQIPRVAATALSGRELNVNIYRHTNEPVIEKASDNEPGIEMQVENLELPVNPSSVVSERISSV

[14] = biological target: T4, Alpha-2A adrenergic receptor; assay type: functional, cell-based; remark: listed apart in the source
[15] = biological target: D(3) dopamine receptor (Homo sapiens, UniProt P35462)
Also: assay procedure not described here.

Chain of Delta-type opioid receptor (P41143 whole entry): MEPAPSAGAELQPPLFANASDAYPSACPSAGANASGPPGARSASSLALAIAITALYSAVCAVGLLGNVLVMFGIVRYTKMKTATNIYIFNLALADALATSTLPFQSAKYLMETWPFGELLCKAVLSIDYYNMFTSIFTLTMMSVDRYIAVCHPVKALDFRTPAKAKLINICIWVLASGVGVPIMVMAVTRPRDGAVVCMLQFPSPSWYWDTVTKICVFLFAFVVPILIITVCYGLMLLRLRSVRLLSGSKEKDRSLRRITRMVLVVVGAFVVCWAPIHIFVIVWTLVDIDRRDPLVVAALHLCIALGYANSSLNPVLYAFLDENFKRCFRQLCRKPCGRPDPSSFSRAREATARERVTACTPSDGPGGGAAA
Chain of Sodium-dependent dopamine transporter (Q01959 whole entry): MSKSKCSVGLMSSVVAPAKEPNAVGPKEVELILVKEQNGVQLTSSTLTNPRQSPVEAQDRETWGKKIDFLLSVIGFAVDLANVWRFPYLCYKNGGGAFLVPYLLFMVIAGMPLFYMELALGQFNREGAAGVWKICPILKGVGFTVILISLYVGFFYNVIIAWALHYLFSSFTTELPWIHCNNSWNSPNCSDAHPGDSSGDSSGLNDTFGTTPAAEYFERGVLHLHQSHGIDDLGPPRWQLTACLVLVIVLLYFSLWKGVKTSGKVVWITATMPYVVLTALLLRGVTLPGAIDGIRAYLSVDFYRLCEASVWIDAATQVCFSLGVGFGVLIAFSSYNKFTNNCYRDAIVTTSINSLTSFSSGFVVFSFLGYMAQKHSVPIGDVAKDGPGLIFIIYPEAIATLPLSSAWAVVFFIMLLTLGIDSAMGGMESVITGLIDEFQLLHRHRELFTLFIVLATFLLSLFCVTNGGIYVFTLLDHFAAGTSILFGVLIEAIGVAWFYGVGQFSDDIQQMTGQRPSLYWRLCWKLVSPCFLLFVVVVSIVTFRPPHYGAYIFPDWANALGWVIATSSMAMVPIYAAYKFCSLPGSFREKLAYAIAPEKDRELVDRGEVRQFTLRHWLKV
Chain of D(3) dopamine receptor (P35462 whole entry): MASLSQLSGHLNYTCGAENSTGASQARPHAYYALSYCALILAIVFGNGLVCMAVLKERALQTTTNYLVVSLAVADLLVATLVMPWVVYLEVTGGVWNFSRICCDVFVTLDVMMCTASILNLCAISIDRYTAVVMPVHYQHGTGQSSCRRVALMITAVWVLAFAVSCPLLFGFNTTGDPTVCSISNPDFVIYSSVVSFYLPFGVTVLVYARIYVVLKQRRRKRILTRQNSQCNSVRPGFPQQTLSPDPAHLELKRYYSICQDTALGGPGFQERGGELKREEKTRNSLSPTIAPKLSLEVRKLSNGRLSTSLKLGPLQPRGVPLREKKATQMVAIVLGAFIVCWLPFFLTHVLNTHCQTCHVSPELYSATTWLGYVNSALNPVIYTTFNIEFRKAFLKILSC
Chain of D(1A) dopamine receptor (P21728 whole entry): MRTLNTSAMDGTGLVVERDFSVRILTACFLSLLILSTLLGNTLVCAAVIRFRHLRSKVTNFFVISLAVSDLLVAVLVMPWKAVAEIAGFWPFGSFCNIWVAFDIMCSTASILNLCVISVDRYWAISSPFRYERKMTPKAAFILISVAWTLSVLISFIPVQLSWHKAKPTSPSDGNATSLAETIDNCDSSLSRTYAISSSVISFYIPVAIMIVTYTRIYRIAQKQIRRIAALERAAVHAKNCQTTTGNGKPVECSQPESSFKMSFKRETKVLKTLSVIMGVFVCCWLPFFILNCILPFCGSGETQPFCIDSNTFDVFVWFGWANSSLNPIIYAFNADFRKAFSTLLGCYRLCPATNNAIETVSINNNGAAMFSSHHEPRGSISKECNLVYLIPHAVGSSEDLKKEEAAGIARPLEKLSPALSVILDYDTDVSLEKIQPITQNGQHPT
Chain of Gamma-aminobutyric acid receptor subunit alpha-1 (P62813 whole entry): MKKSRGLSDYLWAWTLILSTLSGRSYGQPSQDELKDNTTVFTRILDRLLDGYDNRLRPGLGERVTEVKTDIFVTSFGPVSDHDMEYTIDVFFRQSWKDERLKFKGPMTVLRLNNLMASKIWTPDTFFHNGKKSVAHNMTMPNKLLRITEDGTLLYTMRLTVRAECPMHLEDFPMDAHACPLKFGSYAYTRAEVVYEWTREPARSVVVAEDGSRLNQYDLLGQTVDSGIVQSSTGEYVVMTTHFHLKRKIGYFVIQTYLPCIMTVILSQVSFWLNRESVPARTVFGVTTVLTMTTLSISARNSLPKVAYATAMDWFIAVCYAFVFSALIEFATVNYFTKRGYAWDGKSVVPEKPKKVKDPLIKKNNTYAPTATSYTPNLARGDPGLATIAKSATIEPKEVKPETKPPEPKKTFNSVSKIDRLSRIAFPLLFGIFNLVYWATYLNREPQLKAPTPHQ
Chain of 5-hydroxytryptamine receptor 2B (P41595 whole entry): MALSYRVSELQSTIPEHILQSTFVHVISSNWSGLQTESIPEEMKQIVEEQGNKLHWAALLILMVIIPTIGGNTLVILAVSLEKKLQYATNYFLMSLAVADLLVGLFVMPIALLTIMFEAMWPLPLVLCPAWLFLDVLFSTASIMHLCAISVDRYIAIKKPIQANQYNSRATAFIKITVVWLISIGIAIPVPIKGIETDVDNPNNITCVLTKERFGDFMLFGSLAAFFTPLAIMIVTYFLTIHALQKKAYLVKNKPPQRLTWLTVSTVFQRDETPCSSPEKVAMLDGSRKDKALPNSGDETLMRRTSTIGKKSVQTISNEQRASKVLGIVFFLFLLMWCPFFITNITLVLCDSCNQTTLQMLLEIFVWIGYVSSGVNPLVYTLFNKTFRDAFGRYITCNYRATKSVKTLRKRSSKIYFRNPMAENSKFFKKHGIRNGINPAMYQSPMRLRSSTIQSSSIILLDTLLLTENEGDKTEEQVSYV
Chain of Bile salt export pump (O95342 whole entry): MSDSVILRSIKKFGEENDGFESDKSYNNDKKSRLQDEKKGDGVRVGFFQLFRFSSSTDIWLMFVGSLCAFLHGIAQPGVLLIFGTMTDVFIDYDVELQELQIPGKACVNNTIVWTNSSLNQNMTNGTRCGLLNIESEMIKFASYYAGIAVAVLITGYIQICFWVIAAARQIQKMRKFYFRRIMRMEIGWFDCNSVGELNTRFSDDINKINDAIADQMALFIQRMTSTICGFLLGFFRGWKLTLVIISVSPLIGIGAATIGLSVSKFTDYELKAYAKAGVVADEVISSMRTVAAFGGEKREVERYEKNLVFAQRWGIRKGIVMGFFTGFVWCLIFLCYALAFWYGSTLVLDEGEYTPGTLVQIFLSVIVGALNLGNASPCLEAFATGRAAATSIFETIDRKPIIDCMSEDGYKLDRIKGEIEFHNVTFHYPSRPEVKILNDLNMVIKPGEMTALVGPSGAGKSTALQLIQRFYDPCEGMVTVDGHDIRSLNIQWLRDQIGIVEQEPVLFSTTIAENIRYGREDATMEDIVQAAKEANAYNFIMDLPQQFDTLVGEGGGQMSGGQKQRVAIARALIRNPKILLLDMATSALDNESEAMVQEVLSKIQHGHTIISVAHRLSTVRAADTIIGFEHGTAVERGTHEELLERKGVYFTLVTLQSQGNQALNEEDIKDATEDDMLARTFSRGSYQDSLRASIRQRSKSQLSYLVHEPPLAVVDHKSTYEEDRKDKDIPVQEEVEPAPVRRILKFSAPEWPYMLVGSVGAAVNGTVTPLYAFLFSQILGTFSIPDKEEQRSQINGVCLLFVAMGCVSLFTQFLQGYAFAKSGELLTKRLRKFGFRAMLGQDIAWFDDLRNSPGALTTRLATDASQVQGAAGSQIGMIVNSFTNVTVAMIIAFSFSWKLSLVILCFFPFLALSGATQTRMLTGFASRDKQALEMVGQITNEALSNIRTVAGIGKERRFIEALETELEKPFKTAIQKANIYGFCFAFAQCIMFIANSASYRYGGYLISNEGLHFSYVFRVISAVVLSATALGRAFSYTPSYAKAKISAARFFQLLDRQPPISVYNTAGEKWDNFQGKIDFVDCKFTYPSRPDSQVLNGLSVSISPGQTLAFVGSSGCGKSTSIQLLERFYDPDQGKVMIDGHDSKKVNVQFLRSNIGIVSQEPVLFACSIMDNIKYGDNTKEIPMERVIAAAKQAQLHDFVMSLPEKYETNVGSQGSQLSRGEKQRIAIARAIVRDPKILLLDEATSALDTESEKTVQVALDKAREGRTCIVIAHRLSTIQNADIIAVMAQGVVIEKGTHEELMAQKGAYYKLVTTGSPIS
Chain of Melanocortin receptor 3 (P41968 whole entry): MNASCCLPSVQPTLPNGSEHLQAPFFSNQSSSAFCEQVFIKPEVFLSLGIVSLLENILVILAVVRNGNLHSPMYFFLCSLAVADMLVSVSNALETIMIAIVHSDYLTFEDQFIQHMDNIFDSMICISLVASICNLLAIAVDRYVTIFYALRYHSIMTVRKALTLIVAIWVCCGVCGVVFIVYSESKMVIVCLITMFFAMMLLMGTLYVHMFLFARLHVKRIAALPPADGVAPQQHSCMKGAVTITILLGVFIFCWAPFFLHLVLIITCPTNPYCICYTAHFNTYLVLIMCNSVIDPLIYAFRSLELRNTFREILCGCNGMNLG

Row | Structure (SMILES) | AC50 [1] [µM] | AC50 [2] [µM] | AC50 [3] [µM] | AC50 [4] [µM] | AC50 [5] [µM] | AC50 [6] [µM] | AC50 [7] [µM] | AC50 [8] [µM] | AC50 [9] [µM] | AC50 [10] [µM] | AC50 [11] [µM] | AC50 [12] [µM] | AC50 [13] [µM] | AC50 [14] [µM] | AC50 [15] [µM]
1 | CCCN1C[C@H](CSC)C[C@@H]2c3cccc4[nH]cc(c34)C[C@H]21 [PERGOLIDE] | > 30 | > 30 | > 30 | > 30 | > 30 | 0.0155 | > 30 | > 10 | > 30 | 14.9 |  |  |  |  | 
2 | CCCCCCOc1nsnc1C1=CCCN(C)C1 [XANOMELINE] |  |  |  |  |  |  |  | > 300 |  |  |  |  |  |  | 
3 | CCc1oc2ccccc2c1C(=O)c1cc(I)c(O)c(I)c1 [BENZIODARONE] |  |  |  |  |  |  |  | 6.3 |  |  |  |  |  |  | 
4 | Cc1c(C(=O)NN2CCCCC2)nn(-c2ccc(Cl)cc2Cl)c1-c1ccc(Cl)cc1 [RIMONABANT] | > 30 | > 30 | 3.76 | 22 |  | > 30 | > 30 | 11.6 | 15.9 | 23 | > 30 | > 30 | > 30 | > 30 | 15
5 | CS(=O)(=O)c1ccc(C2=C(c3ccccc3)C(=O)OC2)cc1 [ROFECOXIB] | 4.7 |  | > 30 | > 10 | > 30 | > 30 | > 10 |  | > 30 | > 10 | > 10 | > 30 | > 30 | > 30 | > 10
6 | O=C(CCNNC(=O)c1ccncc1)NCc1ccccc1 [NIALAMIDE] |  |  |  |  |  |  |  | > 300 |  |  |  |  |  |  | 
7 | C[N+]1(C)CCC(OC(=O)C(O)(c2ccccc2)C2CCCC2)C1 (centres undefined) [GLYCOPYRRONIUM BROMIDE] |  |  |  |  |  |  |  | > 300 | > 30 |  |  |  |  |  | 
8 | COC(c1ccccc1)(c1ccccc1)[C@H](Oc1nc(C)cc(C)n1)C(=O)O [AMBRISENTAN] |  |  |  |  |  |  |  | 200 |  |  |  |  |  |  | 
9 | C[N+](C)(C)CCO [CHOLINE] |  |  |  |  |  |  |  | > 300 |  |  |  |  |  |  | 
10 | CC1=C(C(=O)O)N2C(=O)[C@@H](NC(=O)[C@H](N)c3ccccc3)[C@H]2SC1 [CEPHALEXIN ANHYDROUS] | > 10 | > 30 | > 30 | > 10 |  |  | > 30 | > 300 | > 30 |  |  | > 30 | > 30 | > 30 | > 10
11 | CC(C)(S)[C@@H](N)C(=O)O [PENICILLAMINE] |  |  |  |  |  |  |  | > 300 |  |  |  |  |  |  | 
12 | C=CCc1ccccc1OCC(O)CNC(C)C (centres undefined) [ALPRENOLOL] | > 30 | > 30 | > 30 | 30 | > 30 | > 30 | > 30 |  | > 30 | > 30 | > 30 | > 30 | > 30 | > 30 | > 30
13 | CCOC(=O)[C@H](CCc1ccccc1)N[C@@H](C)C(=O)N1[C@H](C(=O)O)C[C@H]2CCCC[C@@H]21 [TRANDOLAPRIL] |  |  |  |  |  |  |  | 220 |  |  |  |  |  |  | 
14 | C=C[C@H]1C[N@@]2CC[C@H]1C[C@H]2[C@H](O)c1ccnc2ccc(OC)cc12 [QUININE] |  |  |  |  |  |  |  | > 300 |  |  |  |  |  |  | 
15 | O=C(Cc1ccc(-c2ccccc2)cc1)Nc1ccccn1 [DIFENPIRAMIDE] | > 30 |  |  |  | > 30 | > 30 | > 30 |  |  |  | > 30 | > 30 | > 30 | > 30 | > 30
16 | CC(C)Nc1ncccn1 [ISAXONINE] |  |  |  |  |  |  |  | > 300 |  |  |  |  |  |  | 
17 | OCCN1C[C@H](O)[C@@H](O)[C@H](O)[C@H]1CO [MIGLITOL] |  |  |  |  |  |  |  | > 300 |  |  |  |  |  |  | 
18 | COc1cc(NC(C)CCCN)c2ncccc2c1 (centres undefined) [PRIMAQUINE] |  | > 30 |  |  |  |  |  | 61 | > 30 |  |  |  |  |  | 
19 | CC(C)C[C@H]1C(=O)N2CCC[C@H]2[C@]2(O)O[C@](NC(=O)[C@@H]3C=C4c5cccc6[nH]c(Br)c(c56)C[C@H]4N(C)C3)(C(C)C)C(=O)N12 [BROMOCRIPTINE] | > 30 | > 30 | 6.81 | > 30 | 28 | 25 | > 30 | 1.6 | > 30 | > 30 | 1.52 |  | 12 |  | 0.105
20 | CCC1=C(C)CN(C(=O)NCCc2ccc(S(=O)(=O)NC(=O)N[C@H]3CC[C@H](C)CC3)cc2)C1=O [GLIMEPIRIDE] |  |  |  |  |  |  |  | 14 |  |  |  |  |  |  | 
21 | CC(=O)Nc1ccc(O)cc1 [ACETAMINOPHEN] | > 30 | > 30 | > 30 | > 30 | > 30 | > 30 | > 30 | > 300 | > 30 | > 30 |  | > 30 | > 30 |  | > 30
22 | C1CCC(C(CC2CCCCN2)C2CCCCC2)CC1 (centres undefined) [PERHEXILINE] | > 30 | > 30 | 14.1 | 7.24 | 4.9 | 12 | 23.5 | 72 | 8.28 | 7.05 | > 30 |  | > 30 | 11 | > 30
23 | Clc1ccc2nsnc2c1NC1=NCCN1 [TIZANIDINE] | > 10 | > 30 | > 30 | > 10 | > 30 | > 30 | > 30 | > 300 | > 30 | > 10 | > 10 |  | > 30 |  | > 10
24 | CN(C)CC(c1ccc(O)cc1)C1(O)CCCCC1 (centres undefined) [DESVENLAFAXINE] |  |  |  |  |  |  |  | > 300 |  |  |  |  |  |  | 
25 | CC(C)(C)NC[C@H](O)COc1ccccc1C1CCCC1 [PENBUTOLOL] |  |  |  |  |  |  |  | > 300 |  |  |  |  |  |  | 
26 | O=C(O)c1cc(O)ccc1O [GENTISIC ACID] |  | 18 |  |  |  |  |  | > 300 |  |  |  |  |  |  | 
